Measured values taken from patent US6894073B2, “Use of diterpene compound as a therapeutic agent of inflammation, immune disease or cancer” (Korea Research Institute of Bioscience and Biotechnology, priority 2000, dated 2005).

Experiments:
prostaglandin E2 = assay: Inhibition of prostaglandin E2 production in LPS-stimulated Raw 264.7 cells (enzyme immunometric assay); format: cell-based, murine; conditions: for PGE2: 1 μg/ml LPS, 16 hours; for inhibition at 0.03 µg/mL / inhibition at 0.3 µg/mL / inhibition at 3 µg/mL / IC50: Mus musculus, RAW264.7; for inhibition at 0.03 µg/mL / inhibition at 0.3 µg/mL / inhibition at 3 µg/mL: read-out: Inhibition rate (%) of prostaglandin E2 production; for IC50: LPS-stimulated Raw 264.7 cells
Protocol: (§1) To investigate whether kaurane diterpene compounds obtained in Example 1 can inhibit the production of prostaglandin, which induces inflammatory reaction, the present inventors measured the amount of prostaglandin E2 accumulated in the culture medium of LPS-stimulated murine macrophage cells, which were treated with four kaurane diterpene compounds, kamebanin, kamebacetal A, kamebakaurin, or exisanin A.
In detail, Raw 264.7 cells in DMEM medium were seeded to a 96-well plate at a cell density of 1×10^5 cells/well and were incubated for 18 hours. Cyclooxygenase-1, the constitutive rate-determining enzyme of the prostaglandin synthesis was inactivated by incubating for 3 hrs with 500 μM of aspirin and each well was washed two times with PBS (phosphate-buffered saline). To each well were added 1 μg/ml of LPS and 3 μg/ml, 0.3 μg/ml, and 0.03 μg/ml concentrations of kaurane diterpene compounds of the present invention and was incubated for 16 hours. After collecting supernatant by centrifugation, the amount of prostaglandin in the culture medium was quantified by enzyme immunometric assay.

TNF-α = assay: Inhibition of TNF-α production in LPS-stimulated Raw 264.7 cells (enzyme immunometric assay); format: cell-based, murine; conditions: for TNF-α: 1 μg/ml LPS, 16 hours; for inhibition at 0.03 µg/mL / inhibition at 0.3 µg/mL / inhibition at 3 µg/mL / IC50: Mus musculus, RAW264.7; for inhibition at 0.03 µg/mL / inhibition at 0.3 µg/mL / inhibition at 3 µg/mL: read-out: Inhibition rate (%) of TNF-α production; for IC50: LPS-stimulated Raw 264.7 cells
Protocol: To investigate whether kaurane diterpene compounds obtained in Example 1 can inhibit effectively the production of tumor necrosis factor-α (TNF-α), one of the inflammatory mediator, which confers cytotoxic effect and induces the production of prostaglandin and cytokines, the present inventors measured the amount of TNF-α accumulated in the culture medium of LPS-stimulated murine macrophage cells, which were treated with four kaurane diterpene compounds, kamebanin, kamebacetal A, kamebakaurin, or exisanin A.
In detail, Raw 264.7 cells in DMEM medium were seeded to a 96-well plate at a cell density of 1×10^5 cells/well and were incubated for 3 hours at 37° C. in a 5% CO2 incubator. To each well were added 1 μg/ml of LPS and 3 μg/ml, 0.3 μg/ml, and 0.03 μg/ml concentrations of kaurane diterpene compounds of the present invention and was incubated for 16 hours. After collecting supernatant by centrifugation, the amount of TNF-α in the culture medium was quantified by enzyme immunometric assay.

nitric oxide (NO) = assay: Inhibition of NO production (nitrite, Griess reagent) in LPS-stimulated Raw 264.7 macrophage cells; format: cell-based, murine; conditions: for NO: 1 μg/ml LPS, 24 hours; for inhibition at 0.03 µg/mL / inhibition at 0.3 µg/mL / inhibition at 3 µg/mL: read-out: Inhibition rate (%) of NO production; for IC50: LPS-stimulated Raw 264.7 cells
Protocol: as §1, with “nitric oxide (NO)” for “prostaglandin,”, “apoptosis of the immune and neuron cells,” for “inflammatory reaction,”, “nitrite (NO2)” for “prostaglandin E2”
In detail, Raw 264.7 murine macrophage cells (ATCC TIB-71) in DMEM medium were seeded to 96-well plate at a cell density of 1×10^5 cells/well and incubated for 3 hours at 37° C., 5% CO2 incubator. To induce NO synthesis in the macrophage cell, 1 μg/ml of LPS and 3 μg/ml, 0.3 μg/ml, and 0.03 μg/ml of kaurane diterpene compounds of the present invention were added to the medium and the plate was incubated for 24 hours. The amount of NO2, the final oxidation product of NO induced by the LPS in the medium was measured as followed. After collecting and centrifuging incubated medium, 100 μl of Griess reagent was added into 100 μl of each culture medium. Then, the medium was incubated for ten minutes at room temperature and absorbance at 550 nm wavelength was measured. Griess reagent was prepared by mixing a solution, wherein 1% sulfanilamide was dissolved in 5% phosphoric acid, and a solution of 0.1% naphyhylethylenediamine-HCl by a 1:1 ratio. To measure the amount of standard NO synthesis, NaNO2 was serially diluted and the absorbance was measured after reacting it with Griess reagent. From this, the standard curve for the amount of NO production was obtained. The amount of NO production in the culture medium treated with each compound was estimated using standard curve for NO determination.

adjuvant arthritis model = assay: Adjuvant arthritis model, paw volume; format: in vivo, Sprague-Dawley rat; conditions: day 16-22, paw volume on 23rd day
Protocol: Finding the inhibitory effect of kaurane diterpene compounds on the production of NO, prostaglandin, and TNF, and on the activation of NF-κB in the murine macrophage cells stimulated by LPS, the present inventors investigated the pharmacological efficacy of kaurane diterpene compounds with a adjuvant arthritis model according to the method of Futaki et al. (General Pharmacology, 1993, 24, 105-110). To prepare animal model of the arthritis, 0.05 ml of 0.1% Mycobacterium butyricum suspended in Freud adjuvant (Sigma, USA) was injected intradermally to the left hind paw of the male Sprague-Dawley rat of 180 g weight. On the fifteenth day after injection, the volume of the right paw of the rats was measured using plethysmometer (Ugo-Basile, Italy), and only the rats having arthritis on the right leg were selected. Thereafter, the selected rats were divided into four groups, six rats per each group. Four kinds of kaurane diterpene compounds of the present invention were administered orally to each groups everyday from the sixteenth day to twenty-second day with doses of 3 mg/kg/day, 10 mg/kg/day, and 20 mg/kg/day in the form of the suspended solution with 0.1% methylcellulose. The inhibition rate of arthritis was calculated by comparing the volume of the paw with that of the control on the 23rd day.

NF-κB = NF-κB activation, SEAP reporter in LPS-stimulated RAW-NF-AP cells; format: cell-based, murine; conditions: for inhibition at 0.03 µg/mL / inhibition at 0.3 µg/mL / inhibition at 3 µg/mL / IC50: Mus musculus; for inhibition at 0.03 µg/mL: 0.03 μg/ml compound; for inhibition at 0.03 µg/mL / inhibition at 0.3 µg/mL / inhibition at 3 µg/mL: 1 μg/ml LPS, 16 hours; for inhibition at 0.3 µg/mL: 0.3 μg/ml compound; for inhibition at 3 µg/mL: 3 μg/ml compound; for IC50: RAW-NF-AP cells, LPS
Protocol: RAW-NF-AP cells, which can be used effectively to detect the NF-κB dependent expression of reporter gene, (Korean Patent Application No. 1999-0006025), were seeded to a 96-well plate at a cell density of 1×10^5 cell/well and were incubated for 3 hours at 37° C. in a 5% CO2 incubator. Thereafter, 1 μg/ml concentration of LPS and 0.03 μg/ml, 0.3 μg/ml, and 3 μg/ml concentrations of kaurane diterpene compounds of the present invention were added to each well and was incubated for 16 hours. After collecting supernatant by centrifugation, the amount of secreted alkaline phosphatase (SEAP) in the culture medium of which expression is regulated by the activation of NF-κB was quantified.

[1] = Mus musculus, RAW264.7, 0.03 μg/ml compound
[2] = Mus musculus, RAW264.7, 0.3 μg/ml compound
[3] = Mus musculus, RAW264.7, 3 μg/ml compound

IC50 (prostaglandin E2)	IC50 (TNF-α)	SMILES	PGE2 (prostaglandin E2; 0.03 μg/ml compound)	PGE2 (prostaglandin E2; 0.3 μg/ml compound)	PGE2 (prostaglandin E2; 3 μg/ml compound)	inhibition at 0.03 µg/mL (prostaglandin E2; 0.03 μg/ml compound)	inhibition at 0.3 µg/mL (prostaglandin E2; 0.3 μg/ml compound)	inhibition at 3 µg/mL (prostaglandin E2; 3 μg/ml compound)	TNF-α (TNF-α; 0.03 μg/ml compound)	TNF-α (TNF-α; 0.3 μg/ml compound)	TNF-α (TNF-α; 3 μg/ml compound)	inhibition at 0.03 µg/mL (TNF-α; 0.03 μg/ml compound)	inhibition at 0.3 µg/mL (TNF-α; 0.3 μg/ml compound)	inhibition at 3 µg/mL (TNF-α; 3 μg/ml compound)	NO (nitric oxide (NO); 0.03 μg/ml compound)	NO (nitric oxide (NO); 0.3 μg/ml compound)	NO (nitric oxide (NO); 3 μg/ml compound)	inhibition at 0.03 µg/mL (nitric oxide (NO); [1])	inhibition at 0.3 µg/mL (nitric oxide (NO); [2])	inhibition at 3 µg/mL (nitric oxide (NO); [3])	also measured
5.37 µM	0.61 µM	C=C1C(=O)[C@@]23C(C[C@H](O)[C@@H]1[C@H]2O)[C@@]1(C)C(C[C@H]3O)C(C)(C)CC[C@@H]1O (stereo partly shown) [Exisanin A, exisanin A]	13.7 ± 0.3 ng/mL	10.7 ± 1.3 ng/mL	5.7 ± 0.7 ng/mL	-16.1%	11.7%	57.7%	1243.0 ± 195.6 pg/mL	936.1 ± 0.00 pg/mL	103.2 ± 12.8 pg/mL	25.8%	44.4%	94.8%	32.5 ± 3.5 µM	22.2 ± 2.3 µM	6.7 ± 0.8 µM	37%	59.3%	92.5%	IC50 (nitric oxide (NO); Mus musculus, RAW264.7): 0.35 µM; Inhibition rate (%) of arthritis (adjuvant arthritis model; 3 mg/kg/day oral): 33 ± 14%; Inhibition rate (%) of arthritis (adjuvant arthritis model; 10 mg/kg/day oral): 52 ± 12%; Inhibition rate (%) of arthritis (adjuvant arthritis model; 20 mg/kg/day oral): 64 ± 13%; inhibition at 0.03 µg/mL (NF-κB): -2.6%; inhibition at 0.3 µg/mL (NF-κB): 19.4%; inhibition at 3 µg/mL (NF-κB): 93.7%; IC50 (NF-κB): 1.66 µM
2.8 µM	0.6 µM	C=C1C(=O)[C@@]23C4CC5C(C)(C)CC[C@H](O)[C@@]5(C(OC)O4)C2CC[C@@H]1[C@H]3O (stereo partly shown) [Kamebacetal A, kamebacetal A]	13.2 ± 0.8 ng/mL	9.8 ± 1.4 ng/mL	2.7 ± 0.4 ng/mL	-11.3%	19.6%	85.6%	1495.0 ± 239.7 pg/mL	691.4 ± 152.7 pg/mL	38.9 ± 1.0 pg/mL	10.5%	59.2%	98.7%	38.5 ± 4.8 µM	19.9 ± 3.7 µM	3.3 ± 0.7 µM	23.9%	64.2%	100%	NO production compared with negative control (no LPS) (nitric oxide (NO); 3 μg/ml): nearly the same as that of the negative control; IC50 (nitric oxide (NO)): 0.58 µM; IC50 (nitric oxide (NO); Mus musculus, RAW264.7): 0.584 µM; Inhibition rate (%) of arthritis (adjuvant arthritis model; 3 mg/kg/day oral): 33 ± 18%; Inhibition rate (%) of arthritis (adjuvant arthritis model; 10 mg/kg/day oral): 55 ± 10%; Inhibition rate (%) of arthritis (adjuvant arthritis model; 20 mg/kg/day oral): 69 ± 14%; SEAP activity compared with negative control (no LPS) (NF-κB; 3 μg/ml): to the extent of negative control; inhibition at 0.03 µg/mL (NF-κB): 1.3%; inhibition at 0.3 µg/mL (NF-κB): 62.2%; inhibition at 3 µg/mL (NF-κB): 110%; IC50 (NF-κB): 2.45 µM
0.88 µM	1 µM	C=C1C(=O)[C@@]23[C@H](O)C[C@@H]4C(C)(C)CC[C@H](O)[C@@]4(C)[C@@H]2CC[C@@H]1[C@H]3O [Kamebanin, kamebanin]	14.4 ± 2.2 ng/mL	4.0 ± 0.3 ng/mL	0.7 ± 0.1 ng/mL	-22.5%	73.9%	104%	1835.0 ± 158.8 pg/mL	805.6 ± 195.4 pg/mL	19.8 ± 0.7 pg/mL	-10%	52.3%	99.8%	23.4 ± 1.3 µM	4.6 ± 0.6 µM	3.6 ± 0.3 µM	56.5%	97.2%	99.3%	Prostaglandin production compared with negative control (no LPS) (prostaglandin E2; 3 μg/ml): nearly the same as that of the negative control; IC50 (nitric oxide (NO); Mus musculus, RAW264.7): 0.06 µM; Inhibition rate (%) of arthritis (adjuvant arthritis model; 3 mg/kg/day oral): 30 ± 15%; Inhibition rate (%) of arthritis (adjuvant arthritis model; 10 mg/kg/day oral): 50 ± 12%; Inhibition rate (%) of arthritis (adjuvant arthritis model; 20 mg/kg/day oral): 68 ± 14%; inhibition at 0.03 µg/mL (NF-κB): 0.6%; inhibition at 0.3 µg/mL (NF-κB): 48.5%; inhibition at 3 µg/mL (NF-κB): 99.7%; IC50 (NF-κB): 0.72 µM
